Test results from patent US8557265B2, “Use of a synergistic composition as a therapeutic agent of disinfectant” (Bode Chemie GmbH, priority 2007, dated 2013).

Key:
Type in all cases: cell-based
[1] = test system: genomic DNA and extrachromosomal plasmid (Yep351) of recombinant Escherichia coli strain; test: Breakdown of genomic DNA and extrachromosomal plasmid DNA in microorganisms, gel electrophoresis (FIG. 1); settings: E. coli suspension, lysozyme 5 minutes, then 5 minutes with 5 μl of solution
Description: A recombinant Escherichia coli strain with an extrachromosomal plasmid (Yep351) was cultivated overnight in LB amp medium. Every 5 μl of this E. coli suspension were treated with 5 μl of lysozyme solution (1 mg/ml) for 5 minutes and then incubated for another 5 minutes with 5 μl of the indicated solutions (1-5). After adding bromophenol blue, the samples were placed in the gel bags and the DNA molecules were separated by electrophoresis.

[2] = test system: Bacillus subtilis; test: Test for antimicrobial action, colony count after plating; settings: cell count of 106 in 50 μl mixed 1:1; incubation time 2 minutes; plated, 37° C.
Description: (§1) Fresh cultures of the indicated microorganisms were adjusted to a cell count of […] in 50 μl and then mixed in a 1:1 ratio with 50 μl of water 70% ethanol or the invented agent (100 mM ascorbic acid, 10 mM FeCl3, and 0.5% SDS). After an incubation time of 2 minutes, the 100 μl batches with the bacteria were plated out on corresponding growth dishes. After an incubation of 1-3 days at 28° C. (Saccharomyces cerevisiae and Candida parapsilosis) or 37° C. (Escherichia coli and Bacillus subtilis), the number of grown colonies was determined. In the batches with sterile water, all microorganisms survived.

[3] = test system: Candida parapsilosis; test: as above; settings: cell count of 106 in 50 μl mixed 1:1; incubation time 2 minutes; plated, 28° C.
Description: as §1

[4] = test system: Escherichia coli; test: as above; settings: cell count of 106 in 50 μl mixed 1:1; incubation time 2 minutes; plated, 37° C.
Description: as §1

[5] = test system: Saccharomyces cerevisiae; test: as above; settings: cell count of 106 in 50 μl mixed 1:1; incubation time 2 minutes; plated, 28° C.
Description: as §1

Compound	effect on DNA molecules in gel electrophoresis [1]	number of grown colonies [2]	number of grown colonies [3]	number of grown colonies [4]	number of grown colonies [5]
CCO [70% ethanol, ethanol]	precipitation of the cell lysate and the DNA	0	0	0	0
CCCCCCCCCCCCOS(=O)(=O)[O-].[Na+] [sample 3, SDS]	lysis of the cells				
